Reference: patent publication US5686454A, “Camphorcarbonyl” (Merck & Co., Inc., priority 1996, dated 1997)

Biological target: T1, uterine OT receptors (Rattus norvegicus, UniProt P70536)
T1 construct: crude membrane preparation of uteri; from tissue; host or cells: uterus of DES-treated rats, crude membranes
T1 sequence (P70536 1-388): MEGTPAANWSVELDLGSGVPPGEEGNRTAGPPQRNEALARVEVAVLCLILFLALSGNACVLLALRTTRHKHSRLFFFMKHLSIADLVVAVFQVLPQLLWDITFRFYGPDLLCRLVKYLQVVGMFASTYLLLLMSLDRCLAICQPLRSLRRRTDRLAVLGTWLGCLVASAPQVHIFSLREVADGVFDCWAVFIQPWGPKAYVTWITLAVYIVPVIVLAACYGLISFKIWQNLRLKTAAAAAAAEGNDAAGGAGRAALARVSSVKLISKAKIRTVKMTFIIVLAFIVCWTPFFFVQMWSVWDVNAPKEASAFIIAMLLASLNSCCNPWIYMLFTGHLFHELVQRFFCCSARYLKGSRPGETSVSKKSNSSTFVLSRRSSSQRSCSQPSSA
Assay: Radioligand binding: competition of [^3 H]oxytocin binding to rat uterine membranes
Details: 1 nM [^3 H]OT, rat uterus membranes, 60 minutes, 22° C., pH 7.4; read-out: IC50
Description: RADIOGLIGAND BINDING ASSAYS
The high affinity binding of [^3 H]

Row | SMILES | IC50
1 | Cc1ccccc1N1CCN(C(=O)C2C3CCC(C)(C2NC(=O)C(CCS(C)(=O)=O)NC(=O)OC(C)(C)C)C3(C)C)CC1 (stereo not drawn) [Example 11, 1-(2-methylphenyl)-4-[(4,7,7-trimethyl-3-endo-(4-methylsulfonyl-2-t-butoxycarbonylamino)butanoylaminobicyclo[2.2.1]hept-2-endo-yl)carbonyl]-piperazine] | 1100 nM
2 | Cc1ccccc1N1CCN(S(=O)(=O)C[C@]23CC[C@H](C[C@]2(O)C(C)C#N)C3(C)C)CC1 (stereo partly drawn) [Example 38, 1-((7,7-Dimethyl-2-exo-hydroxy-2-endo-(1-cyano)ethyl-bicyclo(2.2.1)heptan-1-yl)methanesulfonyl)-4-(2-methylphenyl)piperazine] | 150 nM
3 | Cc1ccccc1N1CCN(C(=O)C2C3CCC(C)(C2NC(=O)C(CCS(C)(=O)=O)NC(=O)OC(C)(C)C)C3(C)C)CC1 (stereo not drawn) [Example 9, 1-(2-methylphenyl)-4-[(4,7,7-trimethyl-3-exo-(4-methylsulfonyl-2-t-butoxycarbonylamino)butanoylaminobicyclo[2.2.1]hept-2-endo-yl)carbonyl]-piperazine] | 6.5 nM
4 | Cc1ccccc1N1CCN(S(=O)(=O)CC23CCC(CC2N(C)C(=O)OCc2ccccc2)C3(C)C)CC1 (stereo not drawn) [Example 76, 1-((7,7-Dimethyl-2-endo-methyl(benzyloxy-carbonyl)amino-bicyclo(2.2.1)-heptan-1-yl)methanesulfonyl)4-(2-methylphenyl)piperazine] | 6.3 nM
5 | Cc1ccccc1N1CCN(C(=O)C2C3CCC(C)(C2NC(=O)C(NC(=O)OC(C)(C)C)C(C)O)C3(C)C)CC1 (stereo not drawn) [Example 19, 1-(2-methylphenyl)-4-[(4,7,7-trimethyl-3-(2-(t-butoxycarbonyl)amino-3-hydroxy)butyrylaminobicyclo[2.2.1]hept-2-yl)carbonyl]-piperazine] | 160 nM
6 | Cc1ccccc1N1CCN(S(=O)(=O)C[C@]23CC[C@H](CC2=CCCl)C3(C)C)CC1 [Example 49, 1-((7,7-dimethyl-2-(2-chloro)ethylidinebicyclo-(2.2.1)heptan-1-yl)methanesulfonyl)-4-(2-methyl-phenyl)piperazine] | 1100 nM
7 | Cc1ccccc1N1CCN(C(=O)C2C3CCC(C)(C2NC(=O)[C@@H]2CCCN2)C3(C)C)CC1 (stereo partly drawn) [Example 15, 1-(2-methylphenyl)-4-[(4,7,7-trimethyl-3-prolylaminobicyclo[2.2.1]hept-2-yl)carbonyl]-piperazine] | 60 nM
8 | Cc1ccccc1N1CCN(S(=O)(=O)C[C@]23CC[C@H](C[C@@H]2NC(=O)C(C)c2c[nH]cn2)C3(C)C)CC1 (stereo partly drawn) [Example 80, 1-((7,7-Dimethyl-2-endo-(2-(4-imidazolyl)propanoyl)-amino-bicyclo(2.2.1)heptan-1-yl)methanesulfonyl)-4-(2-methylphenyl)piperazine] | 12 nM
9 | Cc1ccccc1N1CCN(S(=O)(=O)CC23CCC(CC2NC(=O)Cc2c[nH]cn2)C3(C)C)CC1 (stereo not drawn) [Example 79] | 26 nM
10 | COC(=O)CCN1CCC[C@H]1C(=O)NCC(C)C1(O)CC2CCC1(CS(=O)(=O)N1CCN(c3ccccc3C)CC1)C2(C)C (stereo partly drawn) [Example 81, 1-((7,7-Dimethyl-2-exo-hydroxy-2-endo-2-(1-(1--N -(methoxycarbonylethyl)prolyl)amino)propylbicyclo-(2.2.1)heptan-1-yl)methanesulfonyl)-4-(2-methyl-phenyl)piperazine] | 20 nM
11 | Cc1ccccc1N1CCN(S(=O)(=O)CC23CCC(CC2N(C)C(=O)[C@@H](N)CCS(C)(=O)=O)C3(C)C)CC1 (stereo partly drawn) [Example 77, 1-((7,7-dimethyl-2-endo-methyl(2S-amino-4-(methylsulfonyl)butanoyl)amino-bicyclo(2.2.1)heptan-1-yl)methanesulfonyl)-4-(2-methylphenyl)-piperazine] | 9.2 nM
12 | Cc1ccccc1N1CCN(S(=O)(=O)CC23CCC(CC2(O)C(C)CNC(=O)C2CCCNC2)C3(C)C)CC1 (stereo not drawn) [Example 83, 1-((7,7-Dimethyl-2-exo-hydroxy-2-endo-2-(1-(3-piperidinylcarbonyl)amino)propyl-bicyclo(2.2.1)heptan-1-yl)methanesulfonyl)-4-(2-methylphenyl)piperazine] | 30 nM

The next lines start with the values.

Row | IC50 | SMILES
13 | 100 nM | CCOC(=O)CCCN1CCC[C@H]1C(=O)NCC(C)[C@@]1(O)C[C@H]2CC[C@]1(CS(=O)(=O)N1CCN(c3ccccc3C)CC1)C2(C)C (stereo partly drawn) [Example 41, 1-((7,7-Dimethyl-2-exo-hydroxy-2-endo-2-(1-(1-N-(ethoxycarbonylpropyl)prolyl)amino)propyl-bicyclo(2.2.1)heptan-1-yl)methanesulfonyl)-4-(2-methylphenyl)piperazine]
14 | 35 nM | Cc1ccccc1N1CCN(S(=O)(=O)CC23CCC(CC2C(=O)NCCc2c[nH]cn2)C3(C)C)CC1 (stereo not drawn) [Example 61, 1-((7,7-Dimethyl-2-endo-(4-imidazolyl)ethylamino-carbonyl-bicyclo-(2.2.1)heptan-1-yl)methanesulfonyl)-4-(2-methylphenyl)piperazine]
15 | 55 nM | CC(=O)NC1C(C(=O)N2CCN(c3ccccc3C)CC2)C2CCC1(C)C2(C)C (stereo not drawn) [Example 14, 1-(2-methylphenyl)-4-[(4,7,7-trimethyl-3-acetylaminobicyclo[2.2.1]hept-2-yl)carbonyl]-piperazine]
16 | 5.4 nM | Cc1ccccc1N1CCN(S(=O)(=O)CC23CCC(CC2NC(=O)[C@H](CCS(C)(=O)=O)NC(=O)Cc2c[nH]cn2)C3(C)C)CC1 (stereo partly drawn) [Example 73, 1-((7,7-Dimethyl-2-endo-(2S-(imidazol-4-ylacetyl-amino)-4-(methylsulfonyl)butyramido)-bicyclo(2.2.1)-heptan-1-yl)methanesulfonyl)-4-(2-methylphenyl)-piperazine]
17 | 54 nM | COC(=O)CCN1CCC(C(=O)NCC(C)C2(O)CC3CCC2(CS(=O)(=O)N2CCN(c4ccccc4C)CC2)C3(C)C)CC1 (stereo not drawn) [Example 91, 1-((7,7-Dimethyl-2-exo-hydroxy-2-endo-2-(1-(4-(1-methoxycarbonylethyl)-piperidinylcarbonyl)-amino)propylbicyclo(2.2.1)heptan-1-yl)methane-sulfonyl)-4-(2-methylphenyl)piperazine]

Same assay, conditions: read-out: % inhibition at 100 nM

Row | SMILES | inhibition at 0.1 µM
18 | COC(=O)C1CC(=O)N(CC(C)C2(O)CC3CCC2(CS(=O)(=O)N2CCN(c4ccccc4C)CC2)C3(C)C)C1 (stereo not drawn) [Example 62, 1-((7,7-dimethyl-2-exo-hydroxy-2-endo-2-(1-(3-methoxycarbonyl)-2-pyrrolidinon-1-yl)propylbicyclo-(2.2.1)heptan-1-yl)methanesulfonyl)-4-(2-methylphenyl)piperazine] | 37%
19 | Cc1ccccc1N1CCN(S(=O)(=O)CC23CCC(CC2(O)C(C)CNC(=O)C2CCN(CCC(=O)O)CC2)C3(C)C)CC1 (stereo not drawn) [Example 92, 1-((7,7-Dimethyl-2-exo-hydroxy-2-endo-2-(1-(4-(1-carboxyethyl)piperidinylcarbonyl)amino)propyl-bicyclo-(2.2.1)heptan-1-yl)methanesulfonyl)-4-(2-methylphenyl)piperazine] | 66%
20 | Cc1ccccc1N1CCN(S(=O)(=O)CC23CCC(CC2C(=O)O)C3(C)C)CC1 (stereo not drawn) [Example 60, 1-((7,7-Dimethyl-2-endo-carboxy-bicyclo(2.2.1)heptan-1-yl)methanesulfonyl)-4-(2-methylphenyl)piperazine] | 34%

Same assay, conditions: read-out: % inhibition at 110 nM

Row | SMILES | inhibition at […]
21 | Cc1ccccc1N1CCN(S(=O)(=O)CC23CCC(CC2(O)C(C)CNC(=O)C2CCCN(CC(=O)O)C2)C3(C)C)CC1 (stereo not drawn) [Example 87, 1-((7,7-Dimethyl-2-exo-hydroxy-2-endo-2-(1-(3-(1-carboxymethyl)piperidinylcarbonyl)amino)-propylbicyclo(2.2.1)heptan-1-yl)methanesulfonyl)-4-(2-methylphenyl)piperazine] | 66%

Same assay, conditions: read-out: % inhibition at 1000 nM

Row | SMILES | inhibition at 1 µM
22 | Cc1ccccc1N1CCN(C(=O)C2(CC#N)C(=O)C3(C)CCC2C3(C)C)CC1 (stereo not drawn) [Example 5] | 27%
23 | Cc1ccccc1N1CCN(S(=O)(=O)C[C@]23CC[C@H](CC2=CCN=[N+]=[N-])C3(C)C)CC1 [Example 51, 1-((7,7-dimethyl-2-(2-azido)ethylidine-bicyclo-(2.2.1)heptan-1-yl)methanesulfonyl)-4-(2-methyl-phenyl)piperazine] | 64%
24 | COC(=O)C1=C[C@H]2CC[C@]1(CS(=O)(=O)N1CCN(c3ccccc3C)CC1)C2(C)C [Example 56, 1-((7,7-Dimethyl-2-methoxycarbonyl-bicyclo(2.2.1)hept-2-en-1-yl)methanesulfonyl)-4-(2-methylphenyl)-piperazine] | 38%
25 | Cc1ccccc1N1CCN(S(=O)(=O)CC23CCC(CC2NC(=O)[C@H](CCS(C)(=O)=O)N(C)C)C3(C)C)CC1 (stereo partly drawn) [Example 74, 1-((7,7-Dimethyl-2-endo-(2S-(dimethylamino)-4-(methylsulfonyl)butyramido)-bicyclo(2.2.1)heptan-1-yl)methanesulfonyl)-4-(2-methylphenyl)piperazine] | 54%
26 | Cc1ccccc1N1CCN(S(=O)(=O)C[C@]23CC[C@H](CC2=CCNCC(C)C)C3(C)C)CC1 [Example 50, 1-((7,7-dimethyl-2-(2-isobutylamino)ethylidine-bicyclo(2.2.1)heptan-1-yl)methanesulfonlyl)-4-(2-methylphenyl)piperazine] | 44%

Same assay, conditions: read-out: % inhibition at 10,000 nM

Row | SMILES | inhibition at 10 µM
27 | CC(=O)NC(CC=C1CC2CCC1(CS(=O)(=O)N1CCN(c3ccccc3C)CC1)C2(C)C)C(=O)O (stereo not drawn) [Example 65, 1-((7,7-Dimethyl-2-(3-acetamido-3-carboxy)propylidine-bicyclo(2.2.1)heptan-1-1 methanesulfonyl)-4-2-methylphenyl)piperazine] | 16%
